From the supplement of paper PMC11451515

System: SEM cells
Assay: cell viability relative to DMSO control; higher = less cytotoxic
Settings: 48 h
Procedure, shortened: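 Before seeding, each leukemia line was adapted for at least four passages in each medium. NOMO1 or SEM cells (500 cells/well) and P12-Ichikawa cells (1000 cells/well) went into 1536-well plates at 5 μl, then received library compounds in DMSO by pin dosing across 11 threefold concentrations, 47 μM to 0.79 nM. Readout was CellTiter-Glo One luminescence after 48 h at 37°C, and viability is given as a per-plate percentage of DMSO wells, with cell-free wells as background.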

[1] = HPLM + 10% dialyzed FBS, 0.000781 µM
[2] = HPLM + 10% dialyzed FBS, 0.00234 µM
[3] = HPLM + 10% dialyzed FBS, 0.00702 µM
[4] = HPLM + 10% dialyzed FBS, 0.0211 µM
[5] = HPLM + 10% dialyzed FBS, 0.0632 µM
[6] = HPLM + 10% dialyzed FBS, 0.19 µM
[7] = HPLM + 10% dialyzed FBS, 0.569 µM
[8] = HPLM + 10% dialyzed FBS, 1.71 µM
[9] = HPLM + 10% dialyzed FBS, 5.12 µM
[10] = HPLM + 10% dialyzed FBS, 15.4 µM
[11] = HPLM + 10% dialyzed FBS, 46.1 µM
[12] = RPMI 5 mM glucose + 10% FBS, 0.000781 µM
[13] = RPMI 5 mM glucose + 10% FBS, 0.00234 µM
[14] = RPMI 5 mM glucose + 10% FBS, 0.00702 µM
[15] = RPMI 5 mM glucose + 10% FBS, 0.0211 µM
[16] = RPMI 5 mM glucose + 10% FBS, 0.0632 µM
[17] = RPMI 5 mM glucose + 10% FBS, 0.19 µM
[18] = RPMI 5 mM glucose + 10% FBS, 0.569 µM
[19] = RPMI 5 mM glucose + 10% FBS, 1.71 µM
[20] = RPMI 5 mM glucose + 10% FBS, 5.12 µM
[21] = RPMI 5 mM glucose + 10% FBS, 15.4 µM
[22] = RPMI 5 mM glucose + 10% FBS, 46.1 µM
[23] = RPMI 5 mM glucose + 10% dialyzed FBS, 0.000781 µM
[24] = RPMI 5 mM glucose + 10% dialyzed FBS, 0.00234 µM
[25] = RPMI 5 mM glucose + 10% dialyzed FBS, 0.00702 µM
[26] = RPMI 5 mM glucose + 10% dialyzed FBS, 0.0211 µM
[27] = RPMI 5 mM glucose + 10% dialyzed FBS, 0.0632 µM
[28] = RPMI 5 mM glucose + 10% dialyzed FBS, 0.19 µM
[29] = RPMI 5 mM glucose + 10% dialyzed FBS, 0.569 µM
[30] = RPMI 5 mM glucose + 10% dialyzed FBS, 1.71 µM
[31] = RPMI 5 mM glucose + 10% dialyzed FBS, 5.12 µM
[32] = RPMI 5 mM glucose + 10% dialyzed FBS, 15.4 µM
[33] = RPMI 5 mM glucose + 10% dialyzed FBS, 46.1 µM

| SMILES | cell viability [1] [%] | cell viability [2] [%] | cell viability [3] [%] | cell viability [4] [%] | cell viability [5] [%] | cell viability [6] [%] | cell viability [7] [%] | cell viability [8] [%] | cell viability [9] [%] | cell viability [10] [%] | cell viability [11] [%] | cell viability [12] [%] | cell viability [13] [%] | cell viability [14] [%] | cell viability [15] [%] | cell viability [16] [%] | cell viability [17] [%] | cell viability [18] [%] | cell viability [19] [%] | cell viability [20] [%] | cell viability [21] [%] | cell viability [22] [%] | cell viability [23] [%] | cell viability [24] [%] | cell viability [25] [%] | cell viability [26] [%] | cell viability [27] [%] | cell viability [28] [%] | cell viability [29] [%] | cell viability [30] [%] | cell viability [31] [%] | cell viability [32] [%] | cell viability [33] [%] |
| --- | --- | --- | --- | --- | --- | --- | --- | --- | --- | --- | --- | --- | --- | --- | --- | --- | --- | --- | --- | --- | --- | --- | --- | --- | --- | --- | --- | --- | --- | --- | --- | --- | --- |
| O=C(O)C1=NC(C(=O)O)CC(/C=C/N2c3cc(O)c(OC4OC(CO)C(O)C(O)C4O)cc3CC2C(=O)O)=C1 (stereo not drawn) | 109 | 106 | 110 | 109 | 101 | 113 | 112 | 104 | 103 | 95.9 | 103 | 102 | 107 | 101 | 113 | 101 | 111 | 115 | 102 | 102 | 101 | 97.2 | 112 | 113 | 102 | 118 | 108 | 112 | 105 | 96.4 | 111 | 105 | 96.9 |
| Nc1nc(N)c2nc(CNc3ccc(C(=O)NC(CCC(=O)O)C(=O)O)cc3)cnc2n1 (stereo not drawn) | 104 | 114 | 110 | 127 | 57.2 | 36.6 | 39.5 | 45.6 | 48.6 | 41.8 | 46.5 | 111 | 115 | 120 | 110 | 92.2 | 56.5 | 83 | 76.4 | 99.7 | 86.5 | 87.5 | 96.2 | 103 | 104 | 104 | 30.5 | 23.7 | 23.1 | 23.1 | 28.8 | 29.6 | 23.8 |
| C#C[C@]1(O)CC[C@H]2[C@@H]3CCc4cc(O)ccc4[C@H]3CC[C@@]21C | 86.5 | 103 | 99.6 | 96.6 | 92.2 | 99.4 | 103 | 98.9 | 105 | 68 | 47.1 | 92.3 | 116 | 115 | 113 | 105 | 107 | 111 | 104 | 99.8 | 62.9 | 48.7 | 93.7 | 111 | 108 | 108 | 108 | 98.2 | 95.1 | 114 | 100 | 68.8 | 57.6 |
| C[N]1C=C(C2=C1C=CC=C2)\C3=C(\C(=O)NC3=O)C4=C5CC(CN)CC[N]5C6=C4C=CC=C6 (stereo not drawn) | 88.4 | 97.6 | 92.2 | 107 | 75.4 | 102 | 108 | 99.5 | 86.3 | 19.3 | 3.63 | 100 | 108 | 98.1 | 107 | 66.6 | 111 | 95 | 86 | 79.1 | 31.8 | 3.05 | 89.9 | 108 | 105 | 107 | 86.1 | 95.8 | 111 | 107 | 88.4 | 38.6 | 7.7 |
| CC(N)C12CC3CC(CC(C3)C1)C2 (stereo not drawn) | 89.3 | 104 | 96.8 | 110 | 98.4 | 107 | 118 | 108 | 85.3 | 96.1 | 108 | 102 | 100 | 120 | 122 | 113 | 117 | 118 | 123 | 94.5 | 125 | 131 | 106 | 91.5 | 126 | 98.2 | 115 | 115 | 117 | 118 | 88.1 | 107 | 110 |
| O=C(Nc1ccc(F)c(C(F)(F)F)c1)Nc1nnc(-c2ccncc2)s1 |  |  |  |  |  |  |  |  |  |  |  | 99.6 | 112 | 104 | 103 | 107 | 105 | 88.9 | 104 | 105 | 106 | 92.8 | 121 | 114 | 124 | 113 | 115 | 117 | 121 | 104 | 113 | 125 | 109 |
| CC(C)NC[C@@H](C(=O)N1CCN(c2ncnc3c2[C@H](C)C[C@H]3O)CC1)c1ccc(Cl)cc1 | 113 | 103 | 115 | 89.3 | 87.6 | 63.6 | 36.9 | 23.1 | 12.1 | 9.57 | 1.69 | 103 | 112 | 127 | 101 | 74.3 | 61.3 | 36.9 | 32.5 | 13.8 | 5.24 | 1.73 | 117 | 90.3 | 93 | 79.4 | 93.2 | 48.5 | 34.9 | 20.5 | 9.56 | 4.26 | 2.07 |
| C/C=C(/C)C(=O)O[C@H]1C(C)=C[C@]23C(=O)[C@@H](C=C(CO)[C@@H](O)[C@]12O)[C@H]1[C@@H](C[C@H]3C)C1(C)C | 93.9 | 121 | 87.5 | 90 | 92.4 | 82.1 | 72 | 92.5 | 87.7 | 70.3 | 54.9 | 120 | 114 | 101 | 102 | 100 | 71.9 | 66.9 | 79.9 | 82.6 | 72.7 | 43.8 | 115 | 135 | 101 | 107 | 113 | 93.7 | 104 | 100 | 91.5 | 82.4 | 42.6 |
